Source: patent US9670147B2, “Antioxidant inflammation modulators: oleanolic acid derivatives with amino and other modifications at C-17” (REATA PHARMACEUTICALS, INC., priority 2008, dated 2017)

Key:
HO-1 = test: Nrf2 target gene induction in MDA-MB-435 cells, qPCR: HO-1; type: cell-based, human; settings: 16 hours
Procedure: FIG. 43. Induction of HO-1. FIGS. 43A and 43B: MDA-MB-435 human melanoma cells were treated with vehicle (DMSO) or the indicated compounds and concentrations for 16 hours. HO-1 mRNA levels were quantified using qPCR and were normalized relative to a DMSO-treated sample run in parallel. Values are averages of duplicate wells. FIG. 43C: MDA-MB-435 cells were treated with vehicle (DMSO) or the indicated compounds at 400 nM for 16 hours. HO-1, TrxR1 and actin protein levels were assayed by immunoblotting. Actin served as a loading control.
(§1) FIGS. 44, 46 and 47—Induction of HO-1, TrxR1 and γ-GCS. FIGS. 44A-C, 46A-C, 47A-C: MDA-MB-435 human melanoma cells were treated with vehicle (DMSO) or the indicated compounds (400 nM) for 16 hours. HO-1, thioredoxin reductase-1 (TrxR1), and γ-glutamylcysteine synthetase (γ-GCS) mRNA levels were quantified using qPCR and were normalized relative to a DMSO-treated sample run in parallel. Values are averages of duplicate wells. FIGS. 44D, 46D, 47D: MDA-MB-435 cells were treated with vehicle (DMSO) or the indicated compounds at 400 nM for 16 hours. HO-1, TrxR1 and actin protein levels were assayed by immunoblotting.
(§2) FIG. 45. Induction of HO-1, TrxR1 and γ-GCS. FIGS. 45 A-C: MDA-MB-435 cells were treated with vehicle (DMSO) or the indicated compounds at 160 nM for 16 hours. HO-1, TrxR1, and γ-GCS mRNA levels were quantified by qPCR and were normalized relative to a DMSO-treated sample run in parallel. Values are averages of duplicate wells. FIGS. 44D, 46D, 47D: MDA-MB-435 cells were treated with vehicle (DMSO) or the indicated compounds at 160 nM for 16 hours. HO-1, TrxR1 and actin protein levels were assayed by immunoblotting.
(§3) MDA-MB-435 human melanoma cells were treated with vehicle (DMSO) or the indicated compounds and concentrations for 16 hours. HO-1, thioredoxin reductase-1 (TrxR1), γ-glutamylcysteine synthetase (γ-GCS), and ferritin heavy chain mRNA levels were quantified using qPCR and were normalized relative to a DMSO-treated sample run in parallel. Values are averages of duplicate wells. Primer sequences are as follows.

TrxR1 = test: Nrf2 target gene induction in MDA-MB-435 cells, qPCR: TrxR1; type: cell-based, human; settings: 16 hours
Procedure: as §1, §2, §3

[1] = tested on: IFNγ-induced NO production in RAW264.7 macrophages; test: Suppression of IFNγ-induced NO production (Griess reagent); type: cell-based, mouse; settings: Mus musculus, 2 h pre-treatment, then 20 ng/ml IFNγ for 24 hours
Procedure: (§4) FIGS. 1-34. Inhibition of NO Production. RAW264.7 macrophages were pre-treated with DMSO or drugs at various concentrations (nM) for 2 hours, then treated with 20 ng/ml IFNγ for 24 hours. NO concentration in media was determined using the Griess reagent system; cell viability was determined using WST-1 reagent. FIGS. 49-52. Inhibition of NO Production. RAW264.7 macrophages were pre-treated with DMSO or drugs at various concentrations (nM) for 2 hours, then treated with 20 ng/ml IFNγ for 24 hours. NO concentration in media was determined using the Griess reagent system; cell viability was determined using WST-1 reagent. RAW264.7 macrophages were pre-treated with DMSO or drugs for 2 hours, then treated with recombinant mouse IFNγ (Sigma) for 24 hours. NO concentration in media was determined using the Griess reagent system (Promega). Cell viability was determined using WST-1 reagent (Roche).

γ-GCS = test: Nrf2 target gene induction in MDA-MB-435 cells, qPCR: γ-GCS; type: cell-based, human; settings: 16 hours
Procedure: as §1, §2, §3

RAW264.7 macrophages = test: Cell viability, WST-1 reagent; type: cell-based, mouse; settings: Mus musculus, 2 h pre-treatment, then 20 ng/ml IFNγ for 24 hours
Procedure: as §4

iNOS = iNOS Western blot in RAW264.7 mouse macrophages; type: cell-based; settings: compounds at 300 nM for 2 hours, 24 hour induction by IFNγ, read-out: iNOS suppr. WB
Procedure: FIGS. 38-40. iNOS Western Blot in RAW264.7 mouse macrophages. Cells were pretreated by compounds at 300 nM for 2 hours, followed by 24 hour induction by IFNγ (20 ng/ml). […]

Compound	HO-1 induction (HO-1; 160 nM)	TrxR1 induction (TrxR1; 160 nM)	IC50 [1] [nM]	γ-GCS induction (γ-GCS; 160 nM)	IC50 (RAW264.7 macrophages) [nM]	HO-1 induction (HO-1; 400 nM)	TrxR1 induction (TrxR1; 400 nM)	inhibition at 0.3 µM (iNOS) [%]	γ-GCS induction (γ-GCS; 400 nM)
CNC(=O)N[C@]12CCC(C)(C)C[C@H]1[C@H]1C(=O)C=C3[C@@]4(C)C=C(C#N)C(=O)C(C)(C)[C@@H]4CC[C@@]3(C)[C@]1(C)CC2 [Compound 63172, 1-((4aS,6aR,6bS,8aR,12aS,14aR,14bS)-11-cyano-2,2,6a,6b,9,9,12a-heptamethyl-10,14-dioxo-1,2,3,4,4a,5,6,6a,6b,7,8,8a,9,10,12a,14,14a,14b-octadecahydropicen-4a-yl)-3-methylurea]	4% of induction observed for RTA 402	43% of induction observed for RTA 402	30	27% of induction observed for RTA 402	> 200				
CC1(C)CC[C@]2(NS(=O)(=O)c3cccs3)CC[C@]3(C)[C@H](C(=O)C=C4[C@@]5(C)C=C(C#N)C(=O)C(C)(C)[C@@H]5CC[C@]43C)[C@@H]2C1 [Compound 63187, N-((4aS,6aR,6bS,8aR,12aS,14aR,14bS)-11-cyano-2,2,6a,6b,9,9,12a-heptamethyl-10,14-dioxo-1,2,3,4,4a,5,6,6a,6b,7,8,8a,9,10,12a,14,14a,14b-octadecahydropicen-4a-yl)thiophene-2-sulfonamide]			2 to 5		100	32% of induction observed for RTA 402	90% of induction observed for RTA 402	> 90	90% of induction observed for RTA 402
CC1(C)CC[C@]2(NC(=O)N3CCOCC3)CC[C@]3(C)[C@H](C(=O)C=C4[C@@]5(C)C=C(C#N)C(=O)C(C)(C)[C@@H]5CC[C@]43C)[C@@H]2C1 [Compound 63188, N-((4aS,6aR,6bS,8aR,12aS,14aR,14bS)-11-cyano-2,2,6a,6b,9,9,12a-heptamethyl-10,14-dioxo-1,2,3,4,4a,5,6,6a,6b,7,8,8a,9,10,12a,14,14a,14b-octadecahydropicen-4a-yl)morpholine-4-carboxamide]			27		> 200				
CCC(=O)N[C@]12CCC(C)(C)C[C@H]1[C@H]1C(=O)C=C3[C@@]4(C)C=C(C#N)C(=O)C(C)(C)[C@@H]4CC[C@@]3(C)[C@]1(C)CC2 [Compound 63189, N-((4aS,6aR,6bS,8aR,12aS,14aR,14bS)-11-cyano-2,2,6a,6b,9,9,12a-heptamethyl-10,14-dioxo-1,2,3,4,4a,5,6,6a,6b,7,8,8a,9,10,12a,14,14a,14b-octadecahydropicen-4a-yl)propionamide]			7.5		75				
CC1(C)CC[C@]2(NCC#N)CC[C@]3(C)[C@H](C(=O)C[C@@H]4[C@@]5(C)C=C(C#N)C(=O)C(C)(C)[C@@H]5CC[C@]43C)[C@@H]2C1 [Compound 63222, (4aR,6aR,6bR,8aS,12aS,12bR,14aR,14bR)-8a-(cyanomethylamino)-4,4,6a,6b,11,11,14b-heptamethyl-3,13-dioxo-3,4,4a,5,6,6a,6b,7,8,8a,9,10,11,12,12a,12b,13,14,14a,14b-icosahydropicene-2-carbonitrile]			~45		> 200				
CC1(C)CC[C@]2(NC(=O)C3CC3)CC[C@]3(C)[C@H](C(=O)C[C@@H]4[C@@]5(C)C=C(C#N)C(=O)C(C)(C)[C@@H]5CC[C@]43C)[C@@H]2C1 [Compound 63236, N-((4aS,6aR,6bR,8aR,12aR,12bR,14aR,14bS)-11-cyano-2,2,6a,6b,9,9,12a-heptamethyl-10,14-dioxo-1,2,3,4,4a,5,6,6a,6b,7,8,8a,9,10,12a,12b,13,14,14a,14b-icosahydropicen-4a-yl)cyclopropanecarboxamide]			~120		> 200				
CCN[C@]12CCC(C)(C)C[C@H]1[C@H]1C(=O)C[C@@H]3[C@@]4(C)C=C(C#N)C(=O)C(C)(C)[C@@H]4CC[C@@]3(C)[C@]1(C)CC2 [Compound 63238, (4aR,6aR,6bR,8aS,12aS,12bR,14aR,14bR)-8a-(ethylamino)-4,4,6a,6b,11,11,14b-heptamethyl-3,13-dioxo-3,4,4a,5,6,6a,6b,7,8,8a,9,10,11,12,12a,12b,13,14,14a,14b-icosahydropicene-2-carbonitrile]			~120		> 200				
CC1(C)CC[C@]2(NC(=O)Cc3ccccc3)CC[C@]3(C)[C@H](C(=O)C=C4[C@@]5(C)C=C(C#N)C(=O)C(C)(C)[C@@H]5CC[C@]43C)[C@@H]2C1 [Compound 63244, N-((4aS,6aR,6bS,8aR,12aS,14aR,14bS)-11-cyano-2,2,6a,6b,9,9,12a-heptamethyl-10,14-dioxo-1,2,3,4,4a,5,6,6a,6b,7,8,8a,9,10,12a,14,14a,14b-octadecahydropicen-4a-yl)-2-phenylacetamide]			10		200				
CN(C)[C@]12CCC(C)(C)C[C@H]1[C@H]1C(=O)C=C3[C@@]4(C)C=C(C#N)C(=O)C(C)(C)[C@@H]4CC[C@@]3(C)[C@]1(C)CC2 [Compound 63245, (4aR,6aS,6bR,8aS,12aS,12bR,14bS)-8a-(dimethylamino)-4,4,6a,6b,11,11,14b-heptamethyl-3,13-dioxo-3,4,4a,5,6,6a,6b,7,8,8a,9,10,11,12,12a,12b,13,14b-octadecahydropicene-2-carbonitrile]			33		> 200				
C#CC(=O)N[C@]12CCC(C)(C)C[C@H]1[C@H]1C(=O)C=C3[C@@]4(C)C=C(C#N)C(=O)C(C)(C)[C@@H]4CC[C@@]3(C)[C@]1(C)CC2 [Compound 63246, N-((4aS,6aR,6bS,8aR,12aS,14aR,14bS)-11-cyano-2,2,6a,6b,9,9,12a-heptamethyl-10,14-dioxo-1,2,3,4,4a,5,6,6a,6b,7,8,8a,9,10,12a,14,14a,14b-octadecahydropicen-4a-yl)propiolamide]			~3		> 200	25% of induction observed for RTA 402	66% of induction observed for RTA 402	> 90	77% of induction observed for RTA 402
CC1(C)CC[C@]2(NS(=O)(=O)CC(F)(F)F)CC[C@]3(C)[C@H](C(=O)C=C4[C@@]5(C)C=C(C#N)C(=O)C(C)(C)[C@@H]5CC[C@]43C)[C@@H]2C1 [Compound 63247, N-((4aS,6aR,6bS,8aR,12aS,14aR,14bS)-11-cyano-2,2,6a,6b,9,9,12a-heptamethyl-10,14-dioxo-1,2,3,4,4a,5,6,6a,6b,7,8,8a,9,10,12a,14,14a,14b-octadecahydropicen-4a-yl)-2,2,2-trifluoroethanesulfonamide]			~2		150	19% of induction observed for RTA 402	76% of induction observed for RTA 402	> 90	75% of induction observed for RTA 402
CC1(C)CC[C@]2(NC(=O)OC3CCOC3)CC[C@]3(C)[C@H](C(=O)C[C@@H]4[C@@]5(C)C=C(C#N)C(=O)C(C)(C)[C@@H]5CC[C@]43C)[C@@H]2C1 (stereo partly drawn) [Compound 63265, tetrahydrofuran-3-yl(4aS,6aR,6bR,8aR,12aR,12bR,14aR,14bS)-11-cyano-2,2,6a,6b,9,9,12a-heptamethyl-10,14-dioxo-1,2,3,4,4a,5,6,6a,6b,7,8,8a,9,10,12a,12b,13,14,14a,14b-icosahydropicen-4a-ylcarbamate]			~100		> 200				
